Key:
[1] = tested on: BRAF mutated advanced melanoma; details: cited from earlier work
[2] = tested on: advanced melanoma with the V600E BRAF mutation; details: patients with the V600E BRAF mutation, Phase I; cited from earlier work
[3] = tested on: GRP94 expression by M21 melanoma cell line; assay: Effect of BRAF-I on GRP94 expression, staining with mAb W9, flow cytometry; format: cell-based, human; details: M21 cells, 1 μM of PLX4720, 14 days, vs untreated cells
Method: Effect of BRAF-I on GRP94 expression by M21 melanoma cell line. Cells (2×10^5/ml) were incubated in RPMI 1640 medium containing 10% FCS with 1 μM of BRAF-I for 14 days. […] Untreated cells were used as control. Percentage of stained cells and mean fluorescence intensity (MFI) are indicated.
M21 cells were cultured in RPMI 1640 medium supplemented with 10% FBS and 1 μM of PLX4720. Cells were harvested after 14 days of culture, and washed twice with PBS-BSA. Cells (1×10^5/sample), and were stained with 1 μg of anti-GRP94 mAb W9. Human IgG (HIg) and untreated cells were used as controls. Following an incubation of 30 min at 4° C., cells were washed three times with PBS containing 2% of BSA (PBS-BSA). Cells were then incubated with an appropriate dilution of PE-conjugated anti-human IgG for 30 min at 4° C. Cells were washed and fixed with 2% PFA. Immunofluorescence was measured using a Cyan cytofluorimeter.
M21 cells were cultured in RPMI 1640 medium supplemented with 10% FBS and 1 μM of PLX4720. Cells were harvested after 14 days of culture, and washed twice with PBS-BSA. Cells (1×10^5/sample), and were stained with 1 μg of anti-GRP94 mAb W9. Human IgG (HIg) and untreated cells were used as controls. Following an incubation of 30 min at 4° C., cells were washed three times with PBS containing 2% of BSA (PBS-BSA). […]

[4] = tested on: V600E mutated melanoma cell lines sensitive to BRAF-I; assay: Development of secondary resistance on in vitro treatment with increasing doses, MTT assay; format: cell-based, human; details: increasing doses (2.5-10 μM)
Method: The cell line M21 (harboring the V600E BRAF missense mutation) (4×10^5/well) was cultured in a 6-well plate containing RPMI 1640 medium supplemented with 10% FBS and 2.5 μM of PLX4720. Medium was changed every 4 days. On the 8th day the concentration of PLX4720 was increased to 5 μM. Cells were cultured under these conditions for 12 days changing the medium every 4 days. Then the concentration of PLX4720 in the medium was increased to 10 μM, and the medium has been changed every 3 days. Cells were cultured until when resistant colonies appeared (around 3 weeks). Cells were tested for resistance to BRAF-I PLX4720 by analyzing their growth in the presence of 10 μM of PLX4720, using the MTT assay.

Row | SMILES | response rate ([1]; 32 BRAF mutated advanced melanoma patients, phase II study) | median duration of response ([1]; patients, secondary resistance) | tumor regression and overall survival [2] | expression of GRP94 [3] | time of in vitro treatment until cell lines became secondary resistant [4]
1 | CCCS(=O)(=O)Nc1ccc(F)c(C(=O)c2c[nH]c3ncc(-c4ccc(Cl)cc4)cc23)c1F [PLX4032, Vemurafenib] | 70% | ~8 months | effective in promoting tumor regression and increasing overall survival |  | 
2 | CCCS(=O)(=O)Nc1ccc(F)c(C(=O)c2c[nH]c3ncc(Cl)cc23)c1F [PLX4720] |  |  |  | increased expression of GRP94 | 3-4 week

Source: patent US8771687B2, “Methods for treating a tumor using an antibody that specifically binds GRP94” (University of Pittsburgh—Of the Commonwealth System of …, priority 2010, dated 2014)
